# Assay results taken from US11116710B2, “Antimicrobial compositions” (SYMRISE AG, priority 2016, dated 2021).
# Key:
# E. coli = assay: Preservative challenge test (European Pharmacopoeia 7.0, 5.1.3) in anionic emulsion with Dracorin CE; type: cell-based, Escherichia coli; conditions: pH 5.5
# Method: (§1) The invention will be further described in the following on the basis of examples. The examples serve to illustrate the invention, without thereby restricting the scope of protection of the claims. For examples, 1 to 11 preservative challenge tests according to European Pharmacopoeia 7.0 (5.1.3. Efficacy of antimicrobial preservation) were used. For example 12, activities were determined by measuring minimum inhibitory concentrations (MIC values) according to DIN 58940. All numerical information relates to weight, unless stated otherwise.
# (§2) Activity of Benzoic acid-3-hydroxypropylester (BAHP) against the microorganisms E. coli, P. aeruginosa, S. aureus, C. albicans and spores of A. brasiliensis was evaluated in an anionic emulsion with Dracorin CE as emulsifier. The pH value of the emulsion was 5.5.
# (§3) Activity of Furoic acid-3-hydroxypropylester (FAHP) against the microorganisms E. coli, P. aeruginosa, S. aureus, C. albicans and spores of A. brasiliensis was evaluated in an anionic emulsion with Dracorin CE as emulsifier. The pH value of the emulsion was 5.5.
# (§4) Activity of Anisic acid-3-hydroxypropylester (AAHP) against the microorganisms E. coli, P. aeruginosa, S. aureus, C. albicans and spores of A. brasiliensis was evaluated in an anionic emulsion with Dracorin CE as emulsifier. The pH value of the emulsion was 5.5.
# (§5) Synergistic effects between Benzoic acid-3-hydroxypropylester (BAHP) and 1,2-Octanediol were determined. Activity of BAHP, 1,2-Octanediol and the combination of BAHP and 1,2-Octanediol against the microorganisms E. coli, P. aeruginosa, S. aureus, C. albicans and spores of A. brasiliensis was evaluated in an anionic emulsion with Dracorin CE as emulsifier. The pH value of the emulsion was 5.5.
# P. aeruginosa = assay: as above; type: cell-based, Pseudomonas aeruginosa; conditions: pH 5.5
# Method: as §1, §2, §3, §4, §5
# S. aureus = assay: as above; type: cell-based, Staphylococcus aureus; conditions: pH 5.5
# Method: as §1, §2, §3, §4, §5
# C. albicans = assay: as above; type: cell-based, Candida albicans; conditions: pH 5.5
# Method: as §1, §2, §3, §4, §5
# [1] = system: spores of A. brasiliensis; assay: as above; type: cell-based, Aspergillus brasiliensis
# Method: as §1, §2, §3, §4
# Activity of N-Methylsalicylamid (MSA) against the microorganism A. brasiliensis was evaluated in an anionic emulsion with Dracorin CE as emulsifier. The pH value of the emulsion was 5.5.
# Activity of Furoic acid methylester (FAME) against the microorganism A. brasiliensis was evaluated in an anionic emulsion with Dracorin CE as emulsifier. The pH value of the emulsion was 5.5.
# Activity of Salicylamide (SA) against the microorganism A. brasiliensis was evaluated in an anionic emulsion with Dracorin CE as emulsifier. The pH value of the emulsion was 5.5.
# Activity of Salicylic acid hydroxyethyl ester (SAHE) against the microorganism A. brasiliensis was evaluated in an anionic emulsion with Dracorin CE as emulsifier. The pH value of the emulsion was 5.5.
# Activity of Salicylic acid hydroxypropyl ester (SAHP) against the microorganism A. brasiliensis was evaluated in an anionic emulsion with Dracorin CE as emulsifier. The pH value of the emulsion was 5.5.
# Activity of Benzoic acid-3-hydroxypropylester (BAHP) against spores of A. brasiliensis was evaluated in an anionic emulsion with Dracorin CE as emulsifier. The pH value of the emulsion was 7.
# Activity of Anisic acid-3-hydroxypropylester (AAHP) against spores of A. brasiliensis was evaluated in an anionic emulsion with Dracorin CE as emulsifier. The pH value of the emulsion was 7. […]
# Aspergillus brasiliensis = assay: Minimum inhibitory concentration (MIC) according to DIN 58940; type: cell-based; conditions: Aspergillus brasiliensis, read-out: MIC values (ppm) Aspergillus brasiliensis
# Method: as §1
# (§6) The activity of Benzoic acid-3-hydroxypropylester (BAHP), Furoic acid-3-hydroxypropylester (FAHP) and Anisic acid-3-hydroxypropylester (AAHP), Salicylic acid hydroxyethyl ester (SAHE) and Salicylic acid hydroxypropyl ester (SAHP) was determined against the microorganisms Staphylococcus aureus, Candida albicans, Aspergillus brasiliensis, Pseudomonas aeruginosa and Escherichia coli. The activity of N-Methylsalicylamid (MSA), Furoic acid methylester (FAME) and Salicylamide (SA) was determined against the microorganism Aspergillus brasiliensis.
# Candida albicans = assay: as above; type: cell-based; conditions: Candida albicans, read-out: MIC values (ppm) Candida aibicans
# Method: as §1, §6
# Escherichia coli = assay: as above; type: cell-based; conditions: Escherichia coli, read-out: MIC values (ppm) Escherichia coli
# Method: as §1, §6
# Pseudomonas aeruginosa = assay: as above; type: cell-based; conditions: Pseudomonas aeruginosa, read-out: MIC values (ppm) Pseudomonas aeruginosa
# Method: as §1, §6
# Staphylococcus aureus = assay: as above; type: cell-based; conditions: Staphylococcus aureus, read-out: MIC values (ppm) Staphylococcus aureus
# Method: as §1, §6
# [2] = day 2, 0.75% in anionic emulsion
# [3] = day 2, 1.0% in anionic emulsion
# [4] = day 7, 0.75% in anionic emulsion
# [5] = day 7, 1.0% in anionic emulsion
# [6] = day 14, 0.75% in anionic emulsion
# [7] = day 14, 1.0% in anionic emulsion
# [8] = day 28, 0.75% in anionic emulsion
# [9] = day 28, 1.0% in anionic emulsion
compound,measurement,setting,value
"O=C(OCCCO)c1ccccc1 [BAHP, Benzoic acid-3-hydroxypropylester]",Colony counts (cfu/g formulation),E. coli; [2],<10 cfu/g formulation
same,Colony counts (cfu/g formulation),E. coli; [3],<10 cfu/g formulation
same,Colony counts (cfu/g formulation),E. coli; [4],<10 cfu/g formulation
same,Colony counts (cfu/g formulation),E. coli; [5],<10 cfu/g formulation
same,Colony counts (cfu/g formulation),E. coli; [6],<10 cfu/g formulation
same,Colony counts (cfu/g formulation),E. coli; [7],<10 cfu/g formulation
same,Colony counts (cfu/g formulation),E. coli; [8],<10 cfu/g formulation
same,Colony counts (cfu/g formulation),E. coli; [9],<10 cfu/g formulation
same,Colony counts (cfu/g formulation),P. aeruginosa; [2],<10 cfu/g formulation
same,Colony counts (cfu/g formulation),P. aeruginosa; [3],<10 cfu/g formulation
same,Colony counts (cfu/g formulation),P. aeruginosa; [4],<10 cfu/g formulation
same,Colony counts (cfu/g formulation),P. aeruginosa; [5],<10 cfu/g formulation
same,Colony counts (cfu/g formulation),P. aeruginosa; [6],<10 cfu/g formulation
same,Colony counts (cfu/g formulation),P. aeruginosa; [7],<10 cfu/g formulation
same,Colony counts (cfu/g formulation),P. aeruginosa; [8],<10 cfu/g formulation
same,Colony counts (cfu/g formulation),P. aeruginosa; [9],<10 cfu/g formulation
same,Colony counts (cfu/g formulation),S. aureus; [3],<10 cfu/g formulation
same,Colony counts (cfu/g formulation),S. aureus; [4],<10 cfu/g formulation
same,Colony counts (cfu/g formulation),S. aureus; [5],<10 cfu/g formulation
same,Colony counts (cfu/g formulation),S. aureus; [6],<10 cfu/g formulation
same,Colony counts (cfu/g formulation),S. aureus; [7],<10 cfu/g formulation
same,Colony counts (cfu/g formulation),S. aureus; [8],<10 cfu/g formulation
same,Colony counts (cfu/g formulation),S. aureus; [9],<10 cfu/g formulation
same,Colony counts (cfu/g formulation),C. albicans; [4],<10 cfu/g formulation
same,Colony counts (cfu/g formulation),C. albicans; [5],<10 cfu/g formulation
same,Colony counts (cfu/g formulation),C. albicans; [6],<10 cfu/g formulation
same,Colony counts (cfu/g formulation),C. albicans; [7],<10 cfu/g formulation
same,Colony counts (cfu/g formulation),C. albicans; [8],<10 cfu/g formulation
same,Colony counts (cfu/g formulation),C. albicans; [9],<10 cfu/g formulation
same,Colony counts (cfu/g formulation),"[1]; day 14, 1.0% in anionic emulsion, pH 5.5",<10 cfu/g formulation
same,Colony counts (cfu/g formulation),"[1]; day 14, 1.0% in anionic emulsion, pH 7",<10 cfu/g formulation
same,Colony counts (cfu/g formulation),"[1]; day 28, 1.0% in anionic emulsion, pH 5.5",<10 cfu/g formulation
same,Colony counts (cfu/g formulation),"[1]; day 28, 1.0% in anionic emulsion, pH 7",<10 cfu/g formulation
same,MIC,Aspergillus brasiliensis,2500 µg/mL
same,MIC,Candida albicans,2500 µg/mL
same,MIC,Escherichia coli,2000 µg/mL
same,MIC,Pseudomonas aeruginosa,> 5000 µg/mL
same,MIC,Staphylococcus aureus,5000 µg/mL
